Results on one compound are retold here after patent US20130158267A1, “METHOD OF SYNTHESIZING THE COMPLEX [ZN(NNS)2] ACTIVE AGAINST THE MALARIA PARASITE PLASMODIUM” (priority 2010, published 2013).

This experiment deals with chloroquine resistant strain (W2). As to the kind of experiment: activity against chloroquine resistant strain of the malaria parasite. The experiment is classed as cell-based, Plasmodium falciparum. The following applies: compared with control drug. From the text: 3-[1-(2-pyridyl)ethylidene]hydrazinecarbodithioate have moderate potency against falcipain-2 (FP-2) and falcipain-3 (FP-3) cysteine protease enzymes from the malaria parasite plasmodium falciparum while they portray enormous potency against the chloroquine resistant strain (W2) of the parasite. This patent describes the synthesis, characterization and biological results of metal complexes containing deprotonated 3-[1-(2-pyridyl) ethylidene] hydrazinecarbodithioate ligand (FIG. 1). The metal complex were synthesized and recrystallized. The biological activities (nanomolar) of the metal complex against malaria parasites were tested and tabled as table 2 in FIG. 6 of the drawings. The metal potency was far much greater than the control drug with respect to W-2 . This observation is extremely important as malaria resistance against the chloroquine drug is a great challenge today. This metal complex may act as lead compounds for developing future malaria drugs . […] The potency of cadmium is greatest with respect to W-2 compared to other metals as well as the control drug. The metal complex ZnL(LH)Cl containing the deprotonated dithioester L- have been synthesized and charachterized by elemental analysis, mass spectrometry, proton NMR and Fourier transform IR. The ligand LH undergoes tautomerism which can readily get ionized to generate a deprotonated ligand L-. […]

On to `[Cd]` [cadmium], for which the “potency against W-2 in words / activity sequence versus control” value is recorded as “greatest”.
